Source: ChEMBL document CHEMBL1828546, “Aminothiophenedicarboxamides and dicyanothiopheneacetamides as effective synthetic molluscicides against Indoplanorbis exustus snail” (Eur J Med Chem, 2011)
Activity calls are given as the source filed them. The rule behind the calls is not given here.

Assays:
Assay type in all cases: functional
Indoplanorbis exustus [1] = experiment: Molluscicidal activity against Indoplanorbis exustus assessed as mortality at 0.02 to 40 ppm after 24 hrs
Indoplanorbis exustus [2] = experiment: Molluscicidal activity against Indoplanorbis exustus assessed as mortality at 10 ppm after 24 hrs
Indoplanorbis exustus [3] = experiment: Molluscicidal activity against Indoplanorbis exustus assessed as mortality at 20 ppm after 24 hrs
Indoplanorbis exustus [4] = experiment: Molluscicidal activity against Indoplanorbis exustus assessed as mortality at 30 ppm after 24 hrs
Indoplanorbis exustus [5] = experiment: Molluscicidal activity against Indoplanorbis exustus assessed as mortality at 40 ppm after 24 hrs
Indoplanorbis exustus [6] = experiment: Molluscicidal activity against Indoplanorbis exustus after 24 hrs
Indoplanorbis exustus [7] = experiment: Molluscicidal activity against Indoplanorbis exustus assessed as mortality at 0.02 ppm after 24 hrs
Indoplanorbis exustus [8] = experiment: Molluscicidal activity against Indoplanorbis exustus assessed as mortality at 0.04 ppm after 24 hrs
Indoplanorbis exustus [9] = experiment: Molluscicidal activity against Indoplanorbis exustus assessed as mortality at 0.06 ppm after 24 hrs
Indoplanorbis exustus [10] = experiment: Molluscicidal activity against Indoplanorbis exustus assessed as mortality at 0.08 ppm after 24 hrs

In the case of NC(=O)c1sc2nc(CCl)[nH]c(=O)c2c1-c1ccc(Cl)cc1, the Activity (Indoplanorbis exustus [1]) is reported as “inactive”.
For N#Cc1sc(N)c(C#N)c1-c1ccc(F)cc1F, the Activity (Indoplanorbis exustus [1]) was “inactive”.
In the case of NC(=O)c1sc(N)c(C(N)=O)c1-c1ccc(Cl)cc1, the Activity (Indoplanorbis exustus [2]) is reported as 0%, the Activity (Indoplanorbis exustus [3]) is reported as 20% and the Activity (Indoplanorbis exustus [4]) is reported as 30%. It also gave an Activity (Indoplanorbis exustus [5]) of 50% and an LC50 (Indoplanorbis exustus [6]) of 0.604 ppm.
NC(=O)c1sc(N)c(C(N)=O)c1-c1ccc(F)cc1F showed an Activity (Indoplanorbis exustus [2]) of 20%, an Activity (Indoplanorbis exustus [3]) of 40% and an Activity (Indoplanorbis exustus [4]) of 60%. It also gave an Activity (Indoplanorbis exustus [5]) of 70% and an LC50 (Indoplanorbis exustus [6]) of 0.607 ppm.
Work on NC(=O)c1sc(N)c(C(N)=O)c1-c1cc(C(F)(F)F)cc(C(F)(F)F)c1 yielded an Activity (Indoplanorbis exustus [2]) of 20%, an Activity (Indoplanorbis exustus [3]) of 30% and an Activity (Indoplanorbis exustus [4]) of 60%. It also gave an Activity (Indoplanorbis exustus [5]) of 60% and an LC50 (Indoplanorbis exustus [6]) of 0.751 ppm.
Cc1nc2sc(C(N)=O)c(-c3ccc(Cl)cc3)c2c(=O)[nH]1 was tested, and the Activity (Indoplanorbis exustus [1]) was “inactive”.
For CC(=O)Nc1sc(C#N)c(-c2ccc(F)cc2F)c1C#N, the Activity (Indoplanorbis exustus [7]) was 20%, the Activity (Indoplanorbis exustus [8]) was 40% and the Activity (Indoplanorbis exustus [9]) was 50%. It also gave an Activity (Indoplanorbis exustus [10]) of 60% and an LC50 (Indoplanorbis exustus [6]) of 0.763 ppm.
N#Cc1sc(N)c(C#N)c1-c1cc(C(F)(F)F)cc(C(F)(F)F)c1 was tested, and the Activity (Indoplanorbis exustus [1]) was “inactive”.
CC(=O)Nc1sc(C#N)c(-c2cc(C(F)(F)F)cc(C(F)(F)F)c2)c1C#N showed an Activity (Indoplanorbis exustus [7]) of 20%, an Activity (Indoplanorbis exustus [8]) of 30% and an Activity (Indoplanorbis exustus [9]) of 50%. It also gave an Activity (Indoplanorbis exustus [10]) of 70% and an LC50 (Indoplanorbis exustus [6]) of 0.74 ppm.
CC(=O)Nc1sc(C#N)c(-c2ccc(Cl)cc2)c1C#N was tested, and the Activity (Indoplanorbis exustus [7]) was 20%, the Activity (Indoplanorbis exustus [8]) was 40% and the Activity (Indoplanorbis exustus [9]) was 60%. It also gave an Activity (Indoplanorbis exustus [10]) of 80% and an LC50 (Indoplanorbis exustus [6]) of 0.651 ppm.
With N#Cc1sc(N)c(C#N)c1-c1ccc(Cl)cc1 the Activity (Indoplanorbis exustus [1]) was “inactive”.
